Experiment [1] concerns OS-RC-2 (SDHB-deficient) and 785-O (SDHB-competent) renal carcinoma cells. Kind of experiment: Cell colony formation assay. The note with it: 7 days (SDHB-competent line), 10 days (OS-RC-2); FIG. 2B right. The experiment is classed as cell-based. The protocol: (§1) Cells were extracted from SDH-deficient patient tumor tissues, seeded into 96-well plates, and incubated for 24 hours in GIST culture medium. […] Right panel, Colony formation assay in renal carcinoma cells 7860 (SDHB-wild-type) and OS-RC-2 (SDHB-deficient). Cells were seeded into 6-well plates and incubated overnight in complete culture medium.
For the colony formation assay, 1,000 cells were plated in 6-well plates per well, incubated for 7 to 14 days, then stained with 0.1% crystal violet and colony numbers counted.

Experiment [2] relates to oncogenic signaling proteins in SDHB KD PC12 #5F7 cells. Kind of experiment: Western blot analysis of oncogenic signaling proteins. The experiment is classed as cell-based, rat. As to the method: as §1
Harvested cells treated with dimethyl sulfoxide (DMSO) or indicated concentrations of compounds were lysed in radio-immunoprecipitation (RIPA) buffer (#P0013, Beyotime, China) containing a protease inhibitor cocktail (#20104ES08, Yeasen Biotechnology Co., Ltd., Shanghai) and a phosphatase inhibitor (#20109-A, #20109-B, Yeasen). Equal amounts of protein were separated by 4-20% sodium dodecyl sulfate polyacrylamide gel electrophoresis (SDS-PAGE) and transferred to nitrocellulose membranes. After being blocked with 3% bovine serum, membranes were incubated with primary antibodies, followed by horseradish peroxidase (HRP)-conjugated secondary antibody (#7074, anti-rabbit IgG, CST; #7076, anti-mouse IgG, CST). Finally, bound secondary antibodies were visualized using an ECL Western Blotting Detection Kit (Yeasen). […]

In experiment [3] the test system is SDH-deficient primary GIST cells. Kind of experiment: Antiproliferation in SDH-deficient primary GIST cells (CellTiter 96 Aqueous assay, 72 hours). The experiment is classed as cell-based, human. The note with it: all three primary cell lines derived from patients with SDH-deficient GIST. The protocol: Cells were seeded into 6-well plates and incubated overnight in complete culture medium.
All samples were collected at Sun Yat-sen University Cancer Center with informed consent obtained from each subject. The study, which involved human subjects, was approved by the Medical Ethics Committee of Sun Yat-sen University Cancer Center.
The tissues from GIST patient samples were sustained in Dulbecco's modified Eagle medium (DMEM)/F12 medium containing 1% antibiotic and washed with phosphate-buffered saline (PBS) and then cut into fragments by surgical ophthalmic scissors. The tissues were digested with 1 mg/mL collagenase IV at 37° C. for 30 minutes, followed by filtration of the suspension into single cells with a single-cell strainer centrifugation. […] The procedures were performed as per manufacturers' instructions.

On to `Cc1ccc(C(=O)Nc2ccc(CN3CCN(C)CC3)c(C(F)(F)F)c2)cc1C#Cc1cnc2[nH]ncc2c1` [Olverembatinib, olverembatinib], for which the “inhibition of clone formation, OS-RC-2 versus 785-O” value in experiment [1] is “more significantly inhibited”. Also, the “effect on HIF-1α, HIF-2α, VEGFA, FGFR1, IGF-1R, p-FGFR1, p-IGF-1R, STAT3, p-STAT3, Src and downstream AKT, ERK1/2” value in experiment [2] (24 h treatment, FIG. 2C) is “dose-dependently inhibited”. In experiment [2] (tumor cell lines treated with olverembatinib), the “cleavage of caspase-3 and poly(ADP-ribose) polymerase 1 (apoptosis induction)” value is “Increased cleavage of caspase-3 and poly(ADP-ribose) polymerase 1”. For the same molecule, the “potency rank among TKIs” value in experiment [3] is on record as “most potent inhibitor”.

These data come from US20260287586A1, “METHODS OF TREATING TKI-RESISTANT AND SDH-DEFICIENT GIST” (priority 2023, published 2026).
